Data published in patent US20230277484A1, “COMPOSITIONS AND METHODS TO PROMOTE BRAIN HEALTH” (Guardian Biosciences, LLC, priority 2022, published 2023).

Experiments:
[1] = mouse, in vivo
Description: 1. The purpose of this study is to determine tissue levels of a test article after dosing in mice.
3. Test system • Number of animals: 39 • Species/strain or breed: C57BL/6J • Age/Wt. at Arrival: 7 weeks • Sex: Female
On study day 0 animals were randomized into treatment groups based on body weight. Following enrollment, treatment was initiated and continued as indicated below. Body weights were recorded following enrollment. Sample collection time points are outlined below On study day 1, animals were necropsied as specified in Section 6.6 below.
7.6 Necropsy information • Method of euthanasia: bleed to exsanguinate followed by cervical dislocation. • Time points: N=3 at each time point; 0 (vehicle); 10 min; 30 min; 1, 2, 3 and 4h
Terminal blood samples were collected via cardiac blood draw and processed for plasma (K2 EDTA, 300-400 uL/animal. Plasma samples were stored at −80 C for shipment on dry ice for bioanalysis. From each animal, the entire brain was collected, flash frozen, and stored at −80 C for shipment on dry ice to bioanalysis.
A study was performed to collect plasma for pharmacokinetic monitoring after a single dose of R-(−)-3-hydroxybutyric acid sodium salt (“BHB”) or R-3′-hydroxybutyl (R)-3′-hydroxybutyrate (“BHB ester”) in female C57BL/6 mice. […]

weight drop model of TBI = assay: Beam-walk behavioral assay in the weight drop model of TBI; type: in vivo, C57BL/6J female mice
From the text: Test System. • Number of animals: 120 (100+20 extra for TBI deaths0 • Species/Strain or Breed: C57BL/6J • Vendor: Jackson Labs • Age/Wt at Arrival: 11 weeks at arrival • Gender: Female • Age/Wt at Study Initiation: 12 weeks • Acclimation: 7 days • Housing: 3-4 animals/cage
Study Design. Animals will arrive in the facility and will have access to food and water ad libitum. On study day 0, animals will be randomized based on bodyweight. Animals will be briefly anesthetized with isoflurane and subjected to traumatic brain injury (TBI) or sham injury as listed under Injury Induction. Animals will be weighed and undergo behavior testing (Beam Walking) and necropsied according to the Necropsy section.
They will then be placed individually in the prone position in a foam bed with their heads directly under a Plexiglas tube. A brass weight (80 g) will be dropped once through the tube from a specific height (0.8 m) and will strike the head directly creating a midline impact injury. Animals will be monitored for the presence of the forearm fencing response as a sign of moderate TBI. Animals will be placed in a clean cage on a heating pad for recovery, and righting reflex recovery times will be recorded for all animals. Sham animals will undergo all the same procedures but will not be subjected to TBI. Animals will be given 0.1 mg/kg SC buprenorphine directly after TBI to reduce acute pain associated with the injury and directly after sham procedures for the purpose of experimental matching. Animals will be checked daily, per the IACUC-approved post-operative monitoring plan.
Behavioral assay—Beam Walking (Luong, T N et al. Assessment of motor balance and coordination in mice using the balance beam.” J. Vis. Exp. (2011) 49: 2376) Fine motor coordination and balance can be assessed by the beam walking assay, which is a popular test for analyzing mice's gait in an environment that challenges their ability to balance themselves. The goal of this test is for the mouse to stay upright and walk across an elevated narrow beam to a safe platform. Performance on the beam is quantified by measuring the time it takes for the mouse to traverse the beam and the number of paw slips that occur in the process. This task is particularly useful for detecting subtle deficits in motor skills and balance that may not be detected by other motor tests, such as the Rotarod.
This test takes place over 3 consecutive days: 2 days of training and 1 day of testing. On training days, each mouse crosses the 12 mm beam 3 times and then the 6 mm beam 3 times. […] Mice are placed at one end of a beam and the time required to cross to the escape box at the other end (80 cm away) is measured by the motion detectors. […]
On the test day, times to cross each beam are recorded. […]

[2] = system: IL-1β, IL-6, IL-10, TNF-α; assay: Luminex Mouse Inflammatory Panel in cortex after TBI; type: in vivo, C57BL/6J female mice
Description: Sacrifice Schedule: • a. Day 0—animals 1-5, all groups, 4h post TBI • b. Day 1—animals 6-10, all groups, 24 h post-TBI • c. Day 14—animals 11-20, all groups, 14d post TBI
Luminex Mouse Inflammatory Panel. FIG. 9A-FIG. 9C show pg/pg total protein of IL-1β (FIG. 9A), IL-6 (FIG. 9B) and IL-10 (FIG. 9C) expressed in the cortex in each study group from FIG. 8. […] While IL-10 is generally thought of as an anti-inflammatory cytokine, it also may promote fibrotic processes [Steen, E H et al. Adv. Wound Care (New Rochelle) (2020) 9 (4): 184-98, citing O'Garra, A. et al. Immunol. Rev. ([…]) 223: 114-31]. The data for the pre+post groups are consistent with the behavioral data.

[3] = system: Neurofilament Light (NfL) Chain; assay: Neurofilament light chain in plasma after TBI; type: in vivo, C57BL/6J female mice; settings: preliminary, data not shown
Description: Plasma collection method: Centrifuge plasma samples (EDTA tubes) at 2200×g (not RPM) for 15 minutes at room temperature. Observe separation of blood cells and plasma, with plasma layer on top. Draw off only the plasma layer and take care not to disturb buffy coat when aliquoting by leaving some plasma behind and avoiding the cell layer. Aliquot samples immediately into appropriately labeled tubes and then place them in a −80° C. freezer. […] [table]

human HCA2 = human HCA2 (Homo sapiens, UniProt Q8TDS4); settings: citing Taggart et al. 2005; read-out: EC50 for activation of human HCA2; cited from earlier work
[4] = citing Newman and Verdin 2017; cited from earlier work

Sequence of human HCA2 (Q8TDS4 whole entry): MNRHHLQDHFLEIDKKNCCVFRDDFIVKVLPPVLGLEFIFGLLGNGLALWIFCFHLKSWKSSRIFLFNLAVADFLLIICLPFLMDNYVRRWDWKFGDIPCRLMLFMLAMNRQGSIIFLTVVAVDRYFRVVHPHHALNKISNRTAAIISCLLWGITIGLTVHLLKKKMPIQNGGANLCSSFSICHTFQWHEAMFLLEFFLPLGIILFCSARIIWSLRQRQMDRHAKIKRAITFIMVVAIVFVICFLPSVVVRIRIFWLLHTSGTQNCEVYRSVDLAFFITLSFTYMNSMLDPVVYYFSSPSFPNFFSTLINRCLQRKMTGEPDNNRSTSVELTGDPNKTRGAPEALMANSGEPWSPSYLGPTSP

**Q.** For `C[C@@H](O)CCOC(=O)C[C@@H](C)O` [BHB ester, R-3′-hydroxybutyl (R)-3′-hydroxybutyrate], which “plasma levels relative to brain levels” value [1] is on record?
**A.** Its value is “approximately ten fold”.

**Q.** With `C[C@@H](O)CC(=O)[O-].[Na+]` [BHB salt, R-(−)-3-hydroxybutyric acid sodium salt] as the compound, how does the “plasma levels relative to brain levels” value [1] read?
**A.** The value was “approximately ten fold”.

**Q.** What about the “improvement in foot faults” value (weight drop model of TBI; 2× pre+post group, 1 day after TBI, IN daily) of the same compound?
**A.** The value was 70%.

**Q.** What about the “foot faults after IN delivery after TBI” value (weight drop model of TBI; as soon as day 1 after injury, greatest decrease in post and 2× pre and post groups at day 3) of the same compound?
**A.** The value was “decreased foot faults”.

**Q.** And the “beam walking at day 3, all treated groups” value (weight drop model of TBI; day 3, best results in post and 2× pre+post groups)?
**A.** The value was “significantly improved”.

**Q.** What about the “beam walking, treated groups vs TBI vehicle” value (weight drop model of TBI; pre, post, pre+post and 2× pre+post groups, day 1 and day 3) of the same compound?
**A.** Its value is “showed improvement in beam walking”.

**Q.** And the “IL-1β expression in cortex” value ([2]; 24 h and 14 day time points)?
**A.** Its value is “decreased expression”.

**Q.** What about the “IL-6 expression in cortex” value ([2]; 24 h and 14 day time points) of the same compound?
**A.** The value was “decreased expression”.

**Q.** What about the “IL-10 expression in cortex” value ([2]; 24 h and 14 day time points) of the same compound?
**A.** The value was “decreased expression”.

**Q.** What about the TNF-α results ([2]; data not shown) of the same compound?
**A.** Its TNF-α results is “not significant”.

**Q.** And the NfL plasma results [3]?
**A.** The NfL plasma results was “not significant”.

**Q.** Which results are given for `CC(O)CC(=O)O` (stereo not drawn) [BHB, beta-hydroxybutyrate]?
**A.** EC50 (human HCA2): ~700 µM; solubility in water and blood [4]: readily soluble in water and blood
